Laboratory results from US7396837B2, “Antitumoral analogs of lamellarins” (Pharma Mar, S.A.U., priority 2002, dated 2008).

Key:
Format in all cases: cell-based
HT-29 = assay: SRB colorimetric cell growth inhibition assay, HT-29; conditions: Homo sapiens, HT-29, HT-29; for GI50: GI=growth inhibition, read-out: GI50 HT-29; for CC50: cell killing (cytotoxic effect), read-out: LC50 HT-29; for IC (TGI): total growth inhibition (cytostatic effect), read-out: TGI HT-29
Method in brief: (§1)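 Continuous-exposure format, human tumour lines. SRB colour reaction quantifies growth/viability. Triplicate wells → mean ± SD → GI, TGI, LC.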

LNCaP = assay: SRB colorimetric cell growth inhibition assay, LNCaP; conditions: Homo sapiens, LNCaP, LN-caP; for GI50: GI=growth inhibition, read-out: GI50 LN-caP; for CC50: cell killing (cytotoxic effect), read-out: LC50 LN-caP; for IC (TGI): total growth inhibition (cytostatic effect), read-out: TGI LN-caP
Method in brief: as §1

DU-145 = assay: SRB colorimetric cell growth inhibition assay, DU-145; conditions: Homo sapiens, DU-145, DU-145; for GI50: GI=growth inhibition, read-out: GI50 DU-145; for CC50: cell killing (cytotoxic effect), read-out: LC50 DU-145; for IC (TGI): total growth inhibition (cytostatic effect), read-out: TGI DU-145
Method in brief: as §1

PANC-1 = assay: SRB colorimetric cell growth inhibition assay, PANC-1; conditions: Homo sapiens, PANC-1, PANC-1; for GI50: GI=growth inhibition, read-out: GI50 PANC-1; for CC50: cell killing (cytotoxic effect), read-out: LC50 PANC-1; for IC (TGI): total growth inhibition (cytostatic effect), read-out: TGI PANC-1
Method in brief: as §1

HeLa = assay: SRB colorimetric cell growth inhibition assay, HeLa; conditions: Homo sapiens, HeLa; for GI50: GI=growth inhibition, read-out: GI50 HELA; for CC50: cell killing (cytotoxic effect), read-out: LC50 HELA; for IC (TGI): total growth inhibition (cytostatic effect), read-out: TGI HELA
Method in brief: as §1

A-549 = assay: SRB colorimetric cell growth inhibition assay, A-549; conditions: Homo sapiens, A549, A-549; for GI50: GI=growth inhibition, read-out: GI50 A-549; for CC50: cell killing (cytotoxic effect), read-out: LC50 A-549; for IC (TGI): total growth inhibition (cytostatic effect), read-out: TGI A-549
Method in brief: as §1

IGROV-ET = assay: SRB colorimetric cell growth inhibition assay, IGROV-ET (ET-743 resistant); conditions: Homo sapiens, IGROV-ET; for GI50: GI=growth inhibition, read-out: GI50 IGROV-ET; for CC50: cell killing (cytotoxic effect), read-out: LC50 IGROV-ET; for IC (TGI): total growth inhibition (cytostatic effect), read-out: TGI IGROV-ET
Method in brief: as §1

SK-MEL-28 = assay: SRB colorimetric cell growth inhibition assay, SK-MEL-28; conditions: Homo sapiens, SK-MEL-28, MEL-28; for GI50: GI=growth inhibition, read-out: GI50 MEL-28; for CC50: cell killing (cytotoxic effect), read-out: LC50 MEL-28; for IC (TGI): total growth inhibition (cytostatic effect), read-out: TGI MEL-28
Method in brief: as §1

LoVo-Dox = assay: SRB colorimetric cell growth inhibition assay, LoVo-Dox (MDR); conditions: Homo sapiens, LOVO-DOX; for GI50: GI=growth inhibition, read-out: GI50 LOVO-DOX; for CC50: cell killing (cytotoxic effect), read-out: LC50 LOVO-DOX; for IC (TGI): total growth inhibition (cytostatic effect), read-out: TGI LOVO-DOX
Method in brief: as §1

IGROV = assay: SRB colorimetric cell growth inhibition assay, IGROV; conditions: Homo sapiens, IGROV; for GI50: GI=growth inhibition, read-out: GI50 IGROV; for CC50: cell killing (cytotoxic effect), read-out: LC50 IGROV; for IC (TGI): total growth inhibition (cytostatic effect), read-out: TGI IGROV
Method in brief: as §1

SK-BR-3 = assay: SRB colorimetric cell growth inhibition assay, SK-BR-3; conditions: Homo sapiens, SK-BR-3, SK-BR-3; for GI50: GI=growth inhibition, read-out: GI50 SK-BR-3; for CC50: cell killing (cytotoxic effect), read-out: LC50 SK-BR-3; for IC (TGI): total growth inhibition (cytostatic effect), read-out: TGI SK-BR-3
Method in brief: as §1

HeLa-APL = assay: SRB colorimetric cell growth inhibition assay, HeLa-APL (aplidine resistant); conditions: Homo sapiens, HELA-APL; for GI50: GI=growth inhibition, read-out: GI50 HELA-APL; for CC50: cell killing (cytotoxic effect), read-out: LC50 HELA-APL; for IC (TGI): total growth inhibition (cytostatic effect), read-out: TGI HELA-APL
Method in brief: as §1

K-562 = assay: SRB colorimetric cell growth inhibition assay, K-562; conditions: Homo sapiens, K562, K-562; for GI50: GI=growth inhibition, read-out: GI50 K-562; for CC50: cell killing (cytotoxic effect), read-out: LC50 K-562; for IC (TGI): total growth inhibition (cytostatic effect), read-out: TGI K-562
Method in brief: as §1

LoVo = assay: SRB colorimetric cell growth inhibition assay, LoVo; conditions: Homo sapiens, LoVo; for GI50: GI=growth inhibition, read-out: GI50 LOVO; for CC50: cell killing (cytotoxic effect), read-out: LC50 LOVO; for IC (TGI): total growth inhibition (cytostatic effect), read-out: TGI LOVO
Method in brief: as §1

## COc1cc(-c2c3c4cc(OC)c(OC(=O)[C@@H]5CCCN5)cc4oc(=O)c3n3ccc4cc(OC(=O)[C@@H]5CCCN5)c(OC)cc4c23)ccc1OC(=O)[C@@H]1CCCN1 [Compound 180]
HT-29
  GI50: 11.1 µM
  CC50: 11.1 µM
  IC (TGI): 11.1 µM
LNCaP
  GI50: 0.053 µM
  CC50: 0.615 µM
  IC (TGI): 0.227 µM
DU-145
  GI50: 0.0359 µM
  CC50: 11.1 µM
  IC (TGI): 0.0842 µM
PANC-1
  GI50: 0.13 µM
  CC50: 11.1 µM
  IC (TGI): 0.0111 µM
HeLa
  GI50: 0.0806 µM
  CC50: 11.1 µM
  IC (TGI): 1.99 µM
A-549
  GI50: 0.0201 µM
  CC50: 7.26 µM
  IC (TGI): 0.233 µM
IGROV-ET
  GI50: 0.0691 µM
  CC50: 11.1 µM
  IC (TGI): 0.531 µM
SK-MEL-28
  GI50: 0.0134 µM
  CC50: 11.1 µM
  IC (TGI): 0.126 µM
LoVo-Dox
  GI50: 0.104 µM
  CC50: 11.1 µM
  IC (TGI): 0.498 µM
IGROV
  GI50: 0.053 µM
  CC50: 11.1 µM
  IC (TGI): 0.319 µM
SK-BR-3
  GI50: 0.0181 µM
  CC50: 1.19 µM
  IC (TGI): 0.0541 µM
HeLa-APL
  GI50: 0.13 µM
  CC50: 11.1 µM
  IC (TGI): 1.21 µM
K-562
  GI50: 0.04 µM
  CC50: 11.1 µM
  IC (TGI): 1.53 µM
LoVo
  GI50: 0.535 µM
  CC50: 8.51 µM
  IC (TGI): 2.01 µM

## COc1cc(-c2c3c4cc(OC)c(OC(=O)[C@@H](N)CC(C)C)cc4oc(=O)c3n3ccc4cc(OC(=O)[C@@H](N)CC(C)C)c(OC)cc4c23)ccc1OC(=O)[C@@H](N)CC(C)C [Compound 181]
HT-29
  GI50: 3.06 µM
  CC50: 10.5 µM
  IC (TGI): 10.5 µM
LNCaP
  GI50: 0.0593 µM
  CC50: 0.678 µM
  IC (TGI): 0.237 µM
DU-145
  GI50: 0.0249 µM
  CC50: 10.5 µM
  IC (TGI): 0.0594 µM
PANC-1
  GI50: 0.0864 µM
  CC50: 10.5 µM
  IC (TGI): 2.09 µM
HeLa
  GI50: 0.0478 µM
  CC50: 10.5 µM
  IC (TGI): 0.632 µM
A-549
  GI50: 0.0198 µM
  CC50: 8.18 µM
  IC (TGI): 0.209 µM
IGROV-ET
  GI50: 0.05 µM
  CC50: 10.5 µM
  IC (TGI): 0.341 µM
SK-MEL-28
  GI50: 0.0168 µM
  CC50: 2.14 µM
  IC (TGI): 0.0956 µM
LoVo-Dox
  GI50: 0.0945 µM
  CC50: 10.5 µM
  IC (TGI): 0.47 µM
IGROV
  GI50: 0.038 µM
  CC50: 3.2 µM
  IC (TGI): 0.231 µM
SK-BR-3
  GI50: 0.0206 µM
  CC50: 0.862 µM
  IC (TGI): 0.0592 µM
HeLa-APL
  GI50: 0.0667 µM
  CC50: 8.14 µM
  IC (TGI): 0.477 µM
K-562
  GI50: 0.0328 µM
  CC50: 7.14 µM
  IC (TGI): 0.444 µM
LoVo
  GI50: 0.331 µM
  CC50: 10.5 µM
  IC (TGI): 1.1 µM

## COc1cc(-c2c3c4cc(OC)c(O)cc4oc(=O)c3n3ccc4c(N)cccc4c23)ccc1O [Compound 182]
HT-29
  GI50: 21.3 µM
  CC50: 21.3 µM
  IC (TGI): 21.3 µM
LNCaP
  GI50: 1.75 µM
  CC50: 21.3 µM
  IC (TGI): 21.3 µM
DU-145
  GI50: 1.08 µM
  CC50: 21.3 µM
  IC (TGI): 21.3 µM
PANC-1
  GI50: 4.85 µM
  CC50: 21.3 µM
  IC (TGI): 21.3 µM
HeLa
  GI50: 8.52 µM
  CC50: 21.3 µM
  IC (TGI): 21.3 µM
A-549
  GI50: 9.58 µM
  CC50: 21.3 µM
  IC (TGI): 21.3 µM
IGROV-ET
  GI50: 3.16 µM
  CC50: 21.3 µM
  IC (TGI): 21.3 µM
SK-MEL-28
  GI50: 1.08 µM
  CC50: 21.3 µM
  IC (TGI): 21.3 µM
LoVo-Dox
  GI50: 1.21 µM
  CC50: 21.3 µM
  IC (TGI): 21.3 µM
IGROV
  GI50: 2.86 µM
  CC50: 21.3 µM
  IC (TGI): 21.3 µM
SK-BR-3
  GI50: 0.365 µM
  CC50: 12 µM
  IC (TGI): 1.25 µM
HeLa-APL
  GI50: 4.46 µM
  CC50: 21.3 µM
  IC (TGI): 21.3 µM
K-562
  GI50: 0.316 µM
  CC50: 21.3 µM
  IC (TGI): 4.85 µM
LoVo
  GI50: 21.3 µM
  CC50: 21.3 µM
  IC (TGI): 21.3 µM

## COc1cc2c(cc1O)CCn1c-2c(Br)c2c3cc(OC)c(O)cc3oc(=O)c21 [Compound 188]
HT-29
  GI50: 21.8 µM
  CC50: 21.8 µM
  IC (TGI): 21.8 µM
LNCaP
  GI50: 3.3 µM
  CC50: 21.8 µM
  IC (TGI): 21.8 µM
DU-145
  GI50: 3.19 µM
  CC50: 21.8 µM
  IC (TGI): 21.8 µM
PANC-1
  GI50: 5.56 µM
  CC50: 21.8 µM
  IC (TGI): 21.8 µM
HeLa
  GI50: 1.05 µM
  CC50: 21.8 µM
  IC (TGI): 3.69 µM
A-549
  GI50: 10.8 µM
  CC50: 21.8 µM
  IC (TGI): 21.8 µM
IGROV-ET
  GI50: 2.51 µM
  CC50: 21.8 µM
  IC (TGI): 13.4 µM
SK-MEL-28
  GI50: 1.14 µM
  CC50: 21.8 µM
  IC (TGI): 21.8 µM
LoVo-Dox
  GI50: 1.3 µM
  CC50: 21.8 µM
  IC (TGI): 21.8 µM
IGROV
  GI50: 5.37 µM
  CC50: 21.8 µM
  IC (TGI): 20.2 µM
SK-BR-3
  GI50: 3.6 µM
  CC50: 21.8 µM
  IC (TGI): 11.5 µM
HeLa-APL
  GI50: 0.984 µM
  CC50: 15.8 µM
  IC (TGI): 31.6 µM
K-562
  GI50: 0.908 µM
  CC50: 21.8 µM
  IC (TGI): 4.02 µM
LoVo
  GI50: 4.5 µM
  CC50: 21.8 µM
  IC (TGI): 21.8 µM
